Measurements taken from patent US9364493B2, “Methods and compositions for enhancing the uptake of therapeutic agents by target cells” (Tsinghua University, priority 2011, dated 2016).

Columns and labels:
[1] = system: Human microvascular endothelial cells (HMECs); assay: Internalization of ES and its derivatives in blood vessel endothelial cells (Western Blotting); type: cell-based; settings: for effect on ES internalization in endothelial cells: tested in place of NT: AMB 25-50 μg/mL, methyl-β-cyclodextrin 1-2 mM, filipin 2.5-5 μg/mL; for increase of ES internalization: then ES 5 μg/mL 30 min, vs cells without NT
Description: Human microvascular endothelial cells (HMECs) were from ATCC (accession number CRL 10636). Mouse lymphatic endothelial cells (mLEC) were isolated via digesting peritoneal lymphoma induced by incomplete Freund's adjuvant injection (Zhuo W. et al, Journal of Pathology; 222:249-260). […] (SEQ ID NO:5) at N-terminal, the sequence of which is SEQ ID NO.3 or SEQ ID NO.4 because the first amino acid residue M will be randomly deleted when expressed in E. Coli. ES was obtained from Protgen Ltd., the amino acid sequence of which is SEQ ID NO.1 or SEQ ID NO.2 because the first amino acid residue M will be randomly deleted when expressed in E. Coli. Monomethoxy PEG propionaldehyde (mPEG-ALD) with an average molecular weight of 20 kDa (Jenkem Technology CO., Ltd.,) was used as the PEG reagent for specifically modifying the α-amino group at N-terminal of a protein. PEG-ES and PEG-Endu were prepared by Protgen Ltd. according to the instructions provided in the PEG reagent kit. Monoclonal antibody against ES was purchased from Oncogene Science, Inc. NT and other reagents were purchased from Sigma-Aldrich Co.
The endothelial cells were cultured to reach 90% confluence, and then pre-treated with DMEM medium (Hyclone) containing NT as follows. NT stock solution was added to the medium to a final concentration of 0 μg/mL, 25 μg/mL, or 50 μg/mL, and the culture was then incubated in a 5% CO2 atmosphere at 37° C. for 20 min for NT pre-treatment. After pre-treatment, ES stock solution (5 mg/ml) was added to the medium to a final concentration of 5 μg/mL. The culture was then incubated in a 5% CO2 atmosphere at 37° C. for 30 min to allow the internalization of ES by the endothelial cells. After removing the medium, the endothelial cells were washed with ice-cold PBS for 3 times and then collected. The ES internalization in whole cell lysate, cytosolic fraction, and nuclear fraction was examined by Western Blotting, compared with the cells without NT treatment.
Some other agents which share the same action mechanism as NT were also tested in place of in this example, such as AMB (25-50 μg/mL), methyl-β-cyclodextrin (1-2 mM), and filipin (2.5-5 μg/mL).
Other therapeutic agents which share the same action mechanism as ES can also be used in this example, such as PEG-modified ES. For this purpose, ES was modified with monomethoxy PEG propionaldehyde (mPEG-ALD) of 20 kDa which specifically modifies the N-terminal of a protein, and the product (PEG-ES) was an ES protein conjugated with one PEG molecule at the N-terminal α-amino group of ES.

[2] = system: Mouse lymphatic endothelial cells (mLEC); assay: ES internalization in lymphatic endothelial cells (Western Blotting); type: cell-based; settings: then ES 2 μg/mL 15 min
Description: Human microvascular endothelial cells (HMECs) were from ATCC (accession number CRL 10636). Mouse lymphatic endothelial cells (mLEC) were isolated via digesting peritoneal lymphoma induced by incomplete Freund's adjuvant injection (Zhuo W. et al, Journal of Pathology; 222:249-260). Endu was obtained from Simcere-Medgenn Bio-pharmaceutical Co., Ltd. Endu is a recombinant ES containing an additional amino acid sequence (M)GGSHHHHH (SEQ ID NO:5) at N-terminal, the sequence of which is SEQ ID NO.3 or SEQ ID NO.4 because the first amino acid residue M will be randomly deleted when expressed in E. Coli. ES was obtained from Protgen Ltd., the amino acid sequence of which is SEQ ID NO.1 or SEQ ID NO.2 because the first amino acid residue M will be randomly deleted when expressed in E. Coli. Monomethoxy PEG propionaldehyde (mPEG-ALD) with an average molecular weight of 20 kDa (Jenkem Technology CO., Ltd.,) was used as the PEG reagent for specifically modifying the α-amino group at N-terminal of a protein. PEG-ES and PEG-Endu were prepared by Protgen Ltd. according to the instructions provided in the PEG reagent kit. Monoclonal antibody against ES was purchased from Oncogene Science, Inc. NT and other reagents were purchased from Sigma-Aldrich Co.
The mLECs were pre-treated with DMEM (Hyclone) containing 0, 75, 150, or 300 μg/mL NT in a 5% CO2 atmosphere at 37° C. for 20 min. The cells were then incubated with culture media containing ES (final concentration of 2 μg/mL) in a 5% CO2 atmosphere at 37° C. for 15 min. After treatment, the cells were washed with PBS for 3 times, and then collected. The ES internalization in cells treated with NT at various concentrations was examined by Western Blotting.

p38 MAPK pathway = assay: p38 MAPK signaling pathway activation in endothelial cells (Western Blotting); type: cell-based; settings: NT 50 μg/mL 20 min and/or ES 5 μg/mL 30 min; vs negative control
Protocol: (§1) In this example, endothelial cells were separated into four groups: (1) negative control group, neither NT treatment, nor ES treatment; (2) NT group, treatment with NT at 50 μg/mL for 20 min, without ES treatment; (3) ES group, treatment with ES at 5 μg/mL for 30 min, without NT treatment; (4) NT plus ES group, treatment with NT at 50 μg/mL for 20 min, followed by treatment with ES at 5 μg/mL for 30 min. After treatment with the same method as described in Example 1, cells were collected and the ERK and p38 MAPK pathways were examined.

[3] = system: Human lung adenocarcinoma A549 tumor; assay: A549 lung adenocarcinoma tumor growth in nude mice; type: in vivo; settings: NT 6 mg/kg i.p. daily alone, fourteen daily injections; vs control group
Protocol: Human lung adenocarcinoma A549 tumor cells (ATCC accession number CCL-185) at exponential growth were subcutaneously inoculated into 6-8 week-old nude mice (Vital River Laboratory Animal Technology Co., Ltd). When the tumor volume reached 100 mm^3, the tumor bearing nude mice were separated into four groups: (1) negative control, treatment with saline; (2) NT group, treatment with NT (6 mg/kg, intraperitoneal injection, daily), without ES treatment; (3) ES group, treatment with ES (12 mg/kg, intraperitoneal injection, daily), without NT treatment; (4) NT plus ES group, combined treatment with NT (6 mg/kg, intraperitoneal injection, daily) and ES (12 mg/kg, intraperitoneal injection, daily). After fourteen daily injections, mice were sacrificed, and the weight and volume of the tumors were measured.

H22 liver cancer = H22 liver cancer mouse model; type: in vivo
ERK pathway = assay: ERK signaling pathway activation in endothelial cells (Western Blotting); type: cell-based; settings: NT 50 μg/mL 20 min and/or ES 5 μg/mL 30 min; vs negative control
Protocol: as §1

[4] = system: EGFR-expressing A549 cells; assay: EGFR monoclonal antibody (Cetuximab) internalization in tumor cells (Western Blotting); type: cell-based, human; settings: NT 25 or 50 μg/mL pre-treatment 20 min, then Cetuximab 5 μg/mL 30 min; positively correlated to NT concentrations
Protocol: EGFR-expressing A549 cells at exponential growth were cultured to reach 90% confluence and then pre-treated with DMEM medium containing NT as follows. NT stock solution was added to the medium to a final concentration of […], 25 μg/mL, or 50 μg/mL, and the culture was then incubated in a 5% CO2 atmosphere at 37° C. for 20 min for NT pre-treatment. After pre-treatment, EGFR monoclonal antibody (Cetuximab, Merck) stock solution (5 mg/ml) was added to the medium to a final concentration of 5 μg/mL. The culture was then incubated in a 5% CO2 atmosphere at 37° C. for 30 min to allow the internalization of EGFR monoclonal antibody by the […]. After treatment, the medium was removed, and the endothelial cells were washed with ice-cold PBS for 3 times and then collected. The EGFR monoclonal antibody internalization in cells was examined by Western Blotting, compared with EGFR monoclonal antibody internalization in cells without NT treatment.

[5] = system: tumor blood vessel endothelial cells (CD31) in A549 tumors; assay: Tumor blood vessel formation assay (CD31 immunofluorescence), A549 mice; type: in vivo, nude mice; settings: NT 6 mg/kg plus ES 12 mg/kg vs ES alone, CD31 blood vessel area
Description: Tumor blood vessel formation assay: Tumors from A549 mice were resected, fixed and sectioned. Samples were detected with primary antibody against CD31 (the marker of tumor blood vessel endothelial cells) and FITC-labeled secondary antibody (Santa Cruz), and then observed with Nikon A1 laser scanning confocal microscope (LSCM). The sectional areas of blood vessels in randomly selected fields (400×) were quantified and averaged with the software of the LSCM system.

HMEC = assay: Transwell cell migration assay; type: cell-based, human; settings: NT 50 μg/mL alone; 10 ng/mL VEGF, 6 hours; vs negative control
Protocol: Cell migration assay: HMEC (2×10^4 cells per well) were seeded into DMEM (Hyclone) containing 0.5% FBS (Hyclone) and 10 ng/mL VEGF (PeproTech) on the upper layer of Transwell chambers (8 μm pores, Costar). ES (40 μg/mL) or NT (50 μg/mL) was added into both the upper and lower layers, and then the chambers were incubated in a 5% CO2 atmosphere at 37° C. for 6 hours to allow cell migration. […] The numbers of the cells migrated into the lower layer were counted and mean values were calculated. Experiments were performed in triplicate and each experiment was repeated twice.
In this example, endothelial cells were separated into four groups: (1) negative control group, neither NT treatment, nor ES treatment; (2) NT group, treatment with NT at 50 μg/mL, without ES treatment; (3) ES group, treatment with ES at 40 μg/mL, without NT treatment; (4) NT plus ES group, combined treatment with NT at 50 μg/mL and ES at 40 μg/mL. […] ES treatment (ES group) inhibited the transwell migration of endothelial cells by 61%.

[6] = NT treatment, same dosage and treatment time, positively correlated to NT concentration

Compound: C[C@@H]1[C@H](O)[C@@H](C)/C=C/C=C/C=C/C=C/C=C/C=C/C=C/[C@H](O[C@@H]2O[C@H](C)[C@@H](O)[C@H](N)[C@@H]2O)C[C@@H]2O[C@](O)(C[C@@H](O)C[C@@H](O)[C@H](O)CC[C@@H](O)C[C@@H](O)CC(=O)O[C@H]1C)C[C@H](O)[C@H]2C(=O)O [AMB, Amphotericin B]
- effect on ES internalization in endothelial cells [1]: can increase ES internalization

Compound: C[C@@H]1[C@H](O)[C@@H](C)/C=C/C=C/CC/C=C/C=C/C=C/C=C/C(O[C@H]2O[C@H](C)[C@@H](O)[C@H](N)[C@@H]2O)CC2O[C@](O)(CC(O)C(O)CCC(O)CC(O)CC(O)CC(=O)O[C@H]1C)CC(O)C2C(=O)O (stereo partly shown) [NT, Nystatin]
- increase of ES internalization in mLECs ([2]; NT 75 μg/mL pre-treatment 20 min): 16 fold
- increase of ES internalization in mLECs ([2]; NT 150 μg/mL pre-treatment 20 min): 32 fold
- increase of ES internalization in mLECs ([2]; NT 300 μg/mL pre-treatment 20 min): 78 fold
- effect on activation of p38 MAPK pathway (p38 MAPK pathway): did not influence
- effect on tumor growth (in words) [3]: did not influence tumor growth
- effect on antiangiogenesis activity of ES (H22 liver cancer; tumor blood vessel area): enhancement effect
- effect on antitumor activity of ES (H22 liver cancer; tumor weight): enhancement effect
- effect on activation of ERK pathway (ERK pathway): did not influence
- effect on Cetuximab internalization in the cells [4]: significantly increased
- increase of ES internalization ([1]; NT 25 μg/mL pre-treatment 20 min): about 2 folds
- increase of ES internalization ([1]; NT 50 μg/mL pre-treatment 20 min): ~15 folds
- effect on PEG-ES internalization in blood vessel endothelial cells ([1]; NT treatment, same PEG-ES dosage and treatment time, positively correlated to NT concentration): increased
- effect on Endu internalization in endothelial cells [1, 6]: increased
- effect on PEG-Endu internalization in endothelial cells [1, 6]: increased
- effect on inhibitory efficacy of ES on tumor blood vessel formation [5]: potentiated
- effect on transwell migration of endothelial cells (in words) (HMEC): did not substantially influence

Compound: CCCCC[C@@H](O)[C@H]1C(=O)O[C@H](C)[C@@H](O)/C=C/C=C/C=C/C=C/C=C(\C)[C@@H](O)C[C@H](O)C[C@H](O)C[C@H](O)C[C@H](O)C[C@H](O)C[C@@H]1O [filipin]
- effect on ES internalization in endothelial cells [1]: can increase ES internalization

Compound: methyl-β-cyclodextrin
- effect on ES internalization in endothelial cells [1]: can increase ES internalization
